According to ChEMBL document CHEMBL1142235, “Pharmacokinetics and safety of indinavir in human immunodeficiency virus-infected pregnant women” (Antimicrob Agents Chemother, 2007):

Legend:
[1] = Tmax in HIV1 infected pregnant woman during postpartum period at 800 mg three times/day; format: ADME, organism-based; conditions: female, human, in vivo
Homo sapiens [2] = species on record: Homo sapiens; assay: AUC (0-8 hrs) in HIV1 infected pregnant woman during antepartum period at 800 mg three times/day; format: ADME, organism-based, Plasma; set-up: dose 800 mg, time < 8 hr; conditions: in vivo
[3] = AUC (0-8 hrs) in HIV1 infected pregnant woman during postpartum period at 800 mg three times/day; format: ADME, organism-based; set-up: dose 800 mg, time < 8 hr; conditions: female, human, plasma
Homo sapiens [4] = species on record: Homo sapiens; assay: Oral clearance in HIV1 infected pregnant woman during antepartum period at 800 mg three times/day; format: ADME, organism-based; conditions: in vivo
[5] = Oral clearance in HIV1 infected pregnant woman during postpartum period at 800 mg three times/day; format: ADME, organism-based; conditions: female, human, in vivo
[6] = Cmax in HIV1 infected pregnant woman during antepartum period at 800 mg three times/day; format: ADME, organism-based; set-up: dose 800 mg; conditions: female, human, in vivo
[7] = Cmax in HIV1 infected pregnant woman during postpartum period at 800 mg three times/day; format: ADME, organism-based; set-up: dose 800 mg; conditions: female, human, in vivo
[8] = Tmax in HIV1 infected pregnant woman during antepartum period at 800 mg three times/day; format: ADME, organism-based; conditions: female, human, in vivo

## CC(C)(C)NC(=O)[C@@H]1CN(Cc2cccnc2)CCN1C[C@@H](O)C[C@@H](Cc1ccccc1)C(=O)N[C@H]1c2ccccc2C[C@H]1O.O [INDINAVIR]
[1]
  Tmax: 1.88 h
Homo sapiens [2]
  AUC: 459 µg·min/mL
[3]
  AUC at 8 h: 23800 ng·h/mL
Homo sapiens [4]
  CL/F: 3558 mL/min
[5]
  CL/F: 697 mL/min
[6]
  Cmax: 4370 ng/mL
[7]
  Cmax: 9270 ng/mL
[8]
  Tmax: 1.85 h
